SMILES strings stand for the structures. Numbered stars: 1 amine (or outer) side, 2 acyl side, 3 side chain; on linkers, the order of the positions; unused ones are H or OH. Bridge positions count the residues as written; N and C are the ends. Square brackets hold non-standard residues; d marks the D form. Peptide text beside a SMILES is read from it. * marks the point of attachment. C20 diacid = O=C(O)CCCCCCCCCCCCCCCCCCC(=O)*; γGlu = O=C(O)[C@H](CCC(=O)[*:2])N[*:1]; NMeI = CC[C@H](C)[C@H](NC)C(=O)O; Sar = CNCC(=O)O

This assay has as its target T1, human calcitonin receptor (hCTR2) (Homo sapiens, UniProt P30988).
T1 construct: expressed in transfected cells
T1 sequence (P30988 25-474): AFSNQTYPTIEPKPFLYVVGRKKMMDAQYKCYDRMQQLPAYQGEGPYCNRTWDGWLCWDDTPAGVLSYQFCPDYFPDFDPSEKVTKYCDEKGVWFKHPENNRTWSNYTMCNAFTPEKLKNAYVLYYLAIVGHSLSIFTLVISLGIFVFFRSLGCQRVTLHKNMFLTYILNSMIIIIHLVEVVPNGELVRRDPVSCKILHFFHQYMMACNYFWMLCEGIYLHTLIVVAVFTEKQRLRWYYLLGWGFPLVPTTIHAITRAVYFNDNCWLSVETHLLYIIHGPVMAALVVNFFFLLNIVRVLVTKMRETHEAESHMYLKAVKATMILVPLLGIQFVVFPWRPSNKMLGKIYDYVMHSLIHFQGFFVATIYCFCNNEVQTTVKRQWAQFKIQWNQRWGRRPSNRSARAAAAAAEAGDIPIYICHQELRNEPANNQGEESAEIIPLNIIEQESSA
Briefly: hCTR2 assay: induction of cAMP (AlphaScreen cAMP Assay kit) in COS7 cells expressing hCTR2. It is filed as cell-based. The text has this:
The cell line COS7, originating from African Green Monkey kidney fibroblast cells, was used for establishment of the stable cell lines described below. The COS7 cellular background was used due to it being RAMP naive, and as such it provides the best available system for testing of the monomeric hCTR and different heterodimeric amylin receptor subtypes functionally generated by introduction of the individual RAMPs.
A cell line expressing the human calcitonin receptor (hCTR2) was generated in the COS7 cellular background as stable clones. In brief, hCTR2 (GI: 4502547) was amplified by PCR using primers encoding terminal restriction sites for subcloning. The 5'-end primers additionally encoded a near Kozak consensus sequence to ensure efficient translation. The fidelity of the DNA encoding the receptor was confirmed by DNA sequencing. The PCR products encoding the receptor were subcloned into a mammalian expression vector containing a neomycin (G418) resistance marker. The mammalian expression vector encoding the receptor was transfected into COS7 cells by a standard liposome transfection method. 48 hours post-transfection, cells were seeded for limited dilution cloning and selected with 1 mg/ml G418 in the culture medium. After 3 weeks, surviving colonies of hCTR2-expressing cells were picked, propagated and tested in the amylin efficacy assay as described in Example 3 below. One hCTR2-expressing clone was chosen for compound profiling.
In vitro activity of test peptides at the hCTR2 and hAMYR3 receptors was assessed by measuring the induction of cAMP following stimulation of the receptor by pramlintide or peptides of the invention using the AlphaScreen® cAMP Assay kit from Perkin-Elmer.
Briefly, COS7 cells expressing hCTR2 (see Example 2, above) were seeded at 30-40,000 cells per well in 96-well microtiter plates coated with 0.01 % poly-L-lysine, and grown for 1 day in culture in 100 µl growth medium [DMEM, 10% FCS, Penicillin (100 IU/ml), Streptomycin (100 µg/ml)]. On the day of analysis, growth medium was removed and the cells were washed once with 200 µl Tyrode buffer [Tyrode's Salts (9.6 g/l), 10 mM HEPES, pH 7.4]. Cells were incubated in 100 µl Tyrode buffer containing increasing concentrations of test peptides, 100 µM IBMX and 0.1% casein for 15 min at 37° C. The reaction was stopped by carefully decanting off the compound/buffer medium and replacing it with lysis/detection buffer (80 µl 0.1 % w/v BSA, 5 mM HEPES, 0.3 % v/v Tween-20 in deionized water). After incubation at room temperature for 10 min., the cAMP content of the resulting cell lysate was estimated according to the AlphaScreen® cAMP Assay manufacturer's instructions. EC50 values and relative efficacy values (in %) compared to reference peptide (Pramlintide) were estimated by computer-aided curve fitting using the 4-parameter logistic (4PL) non-linear model.
The in vitro activity results (expressed as EC50 values) for peptides of the invention and for Pramlintide (reference peptide) are summarized in Table 2, below.

Usually EC50 stands for the concentration giving half of the maximal effect. With `CC[C@H](C)[C@@H](C(=O)N[C@@H](CC(C)C)C(=O)N[C@@H](CO)C(=O)N[C@@H](CO)C(=O)N[C@H](C(=O)N[C@@H](CC(N)=O)C(=O)N[C@H](C(=O)NCC(=O)N[C@@H](CO)C(=O)N[C@@H](CC(N)=O)C(=O)N[C@H](C(=O)N1CCC[C@H]1C(N)=O)[C@@H](C)O)C(C)C)[C@@H](C)O)N(C)C(=O)[C@@H](C)NC(=O)CN(C)C(=O)[C@H](Cc1ccccc1)NC(=O)[C@H](CC(N)=O)NC(=O)[C@H](CC(N)=O)NC(=O)[C@H](CO)NC(=O)[C@H](CO)NC(=O)[C@H](Cc1c[nH]cn1)NC(=O)[C@H](Cc1c[nH]cn1)NC(=O)[C@H](CC(C)C)NC(=O)[C@H](Cc1ccccc1)NC(=O)[C@H](CCC(=O)O)NC(=O)[C@H](C)NC(=O)[C@H](CC(C)C)NC(=O)[C@H](CCCNC(=N)N)NC(=O)[C@H](CCC(N)=O)NC(=O)[C@@H](NC(=O)[C@H](C)NC(=O)[C@@H]1CSSC[C@H](NC(=O)[C@H](CCCNC(=N)N)NC(=O)CC[C@H](NC(=O)CCCCCCCCCCCCCCCCCCC(=O)O)C(=O)O)C(=O)N[C@@H](CC(N)=O)C(=O)N[C@@H]([C@@H](C)O)C(=O)N[C@@H](C)C(=O)N[C@@H]([C@@H](C)O)C(=O)N1)[C@@H](C)O` [Compound 14, [19CD]-isoGlu-RC()NTATC()ATQRLAEFLHHSSNNF-Gly(Me)-DAla-Ile(Me)-LSSTNVGSNTP-NH2] ({C20 diacid-γGlu}-RCNTATCATQRLAEFLHHSSNNF[Sar][dA][NMeI]LSSTNVGSNTP-NH2; disulfide 2-7), the EC50 came to 0.21 nM. To `CC[C@H](C)[C@@H](C(=O)N[C@H](CC(C)C)C(=O)N[C@@H](CO)C(=O)N[C@@H](CO)C(=O)N[C@H](C(=O)N[C@@H](CC(N)=O)C(=O)N[C@H](C(=O)NCC(=O)N[C@@H](CO)C(=O)N[C@@H](CC(N)=O)C(=O)N[C@H](C(=O)N1CCC[C@H]1C(N)=O)[C@@H](C)O)C(C)C)[C@@H](C)O)N(C)C(=O)[C@H](C)NC(=O)CN(C)C(=O)[C@H](Cc1ccccc1)NC(=O)[C@H](CC(N)=O)NC(=O)[C@H](CC(N)=O)NC(=O)[C@H](CO)NC(=O)[C@H](CO)NC(=O)[C@H](Cc1c[nH]cn1)NC(=O)[C@H](Cc1c[nH]cn1)NC(=O)[C@H](CC(C)C)NC(=O)[C@H](Cc1ccccc1)NC(=O)[C@H](CCC(=O)O)NC(=O)[C@H](C)NC(=O)[C@H](CC(C)C)NC(=O)[C@H](CCCNC(=N)N)NC(=O)[C@H](CCC(N)=O)NC(=O)[C@@H](NC(=O)[C@H](C)NC(=O)[C@@H]1CSSC[C@H](NC(=O)[C@H](CCCNC(=N)N)NC(=O)CC[C@H](NC(=O)CCCCCCCCCCCCCCCCCCC(=O)O)C(=O)O)C(=O)N[C@@H](CC(N)=O)C(=O)N[C@@H]([C@@H](C)O)C(=O)N[C@@H](C)C(=O)N[C@@H]([C@@H](C)O)C(=O)N1)[C@@H](C)O` [Compound 15, [19CD]-isoGlu-RC()NTA TC()ATQRLAEFLHHSSNNF-Gly(Me)-A-Ile(Me)-DLeu-SSTNVGSNTP-NH2] ({C20 diacid-γGlu}-RCNTATCATQRLAEFLHHSSNNF[Sar]A[NMeI][dL]SSTNVGSNTP-NH2; disulfide 2-7) belongs 0.16 nM.

For the origin of these results see EP3046573B1, “AMYLIN ANALOGUES” (Zealand Pharma A/S, priority 2013, dated 2015).
